Measured values published in patent US20240041908A1, “IMMUNOMODULATORY OLIGOSACCHARIDES FOR THE TREATMENT OF AUTISM SPECTRUM DISORDER” (Intrinsic Medicine, Inc., priority 2020, published 2024).
Like-named read-outs stand apart in the source and are kept apart here.

Legend:
[1] = tested on: child, diagnosed with ASD with frequent anxiety and episodes of self harm; assay: Case report: child diagnosed with ASD given oral 3′-sialyllactose daily; assay type: in vivo, human; conditions: 40-50 mg/kg per day orally once a day
Procedure: A child, diagnosed with ASD with frequent anxiety and episodes of self harm, was given 40-50 mg/kg per day 3′-sialyllactose (Glycom, food grade, GRAS) dosed orally once a day.

[2] = tested on: murine and human derived macrophages stimulated with LPS; conditions: cited from earlier work; for IL-1β, IL-2, IL-4, IL-6, IL-12, IFNγ or TNF-α: in vitro
[3] = tested on: TNFα and IL-8; conditions: independent anti-inflammatory effects; cited from earlier work

CC(=O)N[C@H]1C([C@H](O)[C@H](O)CO)O[C@@](O[C@@H]2C(O)[C@H](O[C@@H]3C(CO)O[C@@H](O)C(O)[C@H]3O)OC(CO)[C@@H]2O)(C(=O)O)C[C@H]1O (some centres unmarked) [3′-sialyllactose]
heart rate ([1]; measured by parent before and after treatment): reduction in heart rate
anxiety ([1]; noted by parent): significant decrease
self-harm episodes ([1]; noted by parent): significant decrease
PDL1, COX2 and select chemokines such as CCL2 (MCP1) and CCL5 [2]: reduce
IL-1β, IL-2, IL-4, IL-6, IL-12, IFNγ or TNF-α ([2]; listed as 3′-SL): more significant reductions
IL-1β, IL-2, IL-4, IL-6, IL-12, IFNγ or TNF-α ([2]; listed as 3′SL): reductions

CC(=O)N[C@H]1C([C@H](O)[C@H](O)CO)O[C@@](OCC2O[C@@H](O[C@@H]3C(CO)O[C@@H](O)C(O)[C@H]3O)C(O)[C@@H](O)[C@H]2O)(C(=O)O)C[C@H]1O (some centres unmarked) [6′SL, 6′-sialyllactose]
IL-1β, IL-2, IL-4, IL-6, IL-12, IFNγ or TNF-α [2]: reductions

CC1O[C@@H](OC2[C@H](O[C@H]3C(O)C(O)C(O)O[C@H]3CO)OC(CO)[C@H](O)[C@@H]2O)C(O)[C@@H](O)[C@@H]1O (some centres unmarked) [2′fucosyllactose, 2′-fucosyllactose]
TNFα and IL-8 [3]: reduction
